Reference: patent US6787518B1, “Therapeutics of osteoarthritis and inflammatory joint disease” (priority 1995, dated 2004)

Columns and labels:
mRNA of type II collagen = assay: Expression of mRNA of type II collagen in cultured chondrocytes (hybridization with 32P cDNA probe); type: cell-based, rabbit; conditions: 10^−8 or 10^−7 M PTHrP, last 6 days of 30-day cultivation; FIG. 9
Experimental: (§1) As in Example 1, grown chondrocytes were separated from the subchondral bone to bone transition area of rabbits 4 weeks old from birth by the method of Shimomura et al. (Shimomura, Y. et a., Calcif. Tissue Res. 19, 179-187, 1975). The separated chondrocytes were suspended in an Eagle's minimum essential medium (MEM) containing 10% fetal bovine serum and 50 μg/mL of ascorbic acid and seeded on a 3.5-cm Petri dish coated with type I collagen, each well containing 5,000 cells. Following 30-day cultivation, 10^−8 and 10^−7 M of PTHrP was brought into action for the last 6 days. RNA was prepared from the cultured cells by the CsTFA method (Smale and Sasse, Anal. Biochem. 203, 352-356. 1992), separated by electrophoresis and thereafter transferred onto a membrane. The membrane onto which the RNA had been transferred was hybridized with a ^32P labelled cDNA probe for type X and II collagens.

chondrocytes [1] = assay: Calcification of chondrocytes (45Ca incorporation, Ca level) in centrifugal tube culture; type: cell-based, rabbit
Excerpt: (§2) In the following Examples, grown chondrocytes were separated from the subchondral bone to bone transition area of rabbits 4 weeks old from birth by the method of Shimomura et al. (Shimomura, Y. et al., Calcif. Tissue Res. 19, 179-187, 1975). The separated chondrocytes were cultivated by the method of Iwamoto et al. (Iwamoto, M. et al. Dev. Biol. 136 500-507, 1989) and the method of Kato et al. (Kato, Y. et al. Endocrinology, 127, 114-118, 1990). Stated specifically, the separated chondrocytes were suspended in an Eagle's minimum essential medium (MEM) to give a concentration of 8×10^4 cells/mL in the presence of 10% fetal bovine serum (FBS) and 50 μg/mL of ascorbic acid and then seeded in 1-mL portions into 15-mL plastic centrifugal tubes (Corning). After 5-min centrifugation (at 1,500 rpm), the cells were cultivated in a CO2 gas incubator having a temperature setting of 37° C. Starting on the 6th day of the cultivation, medium changes were made every other day. The presence of PTHrP receptors in the chondrocytes was verified by SDS gel electrophoresis. Stated specifically, the chondrocytes cultured for 14 days were homogenized and incubated with ^125I labelled PTHrP for 5 h. The PTHrP binding to the receptors was crosslinked with DSS, solubilized with a SDS buffer solution and electrophoresed through a SDS gel. After the electrophoresis, autoradiography was performed in the usual manner. As a control, excess PTHrP, was added to prevent the binding of ^125I labelled PTHrP to the receptors and the unbound PTHrP was electrophoresed by the same procedure and subjected to autoradiography.
As in Example 1, chondrocytes were cultured in a centrifugal tube. On the 8th day of the cultivation, 10^−7 M of PTHrP was added and the cultivation was continued for a period of up to 28 days. […] To investigate the progress of calcification, 0.5 μCi of ^45Ca was added at suitable intervals and its incorporation into the chondrocytes after 24 h, as well as the Ca level on the 28th day of the cultivation were measured.

grown chondrocytes = assay: Cartilage matrix proteoglycan synthesis (incorporation of labelled sulfuric acid) in cultured chondrocytes; type: cell-based, rabbit; conditions: FIG. 2
Experimental: As in Example 1, grown chondrocytes were separated from the subchondral bone to bone transition area of rabbits 4 weeks old from birth by the method of Shimomura et al. (Shimomura, Y. et al., Calcif. Tissue Res. 19, 179-187, 1975). The separated chondrocytes were suspended in an Eagle's minimum essential medium (MEM) containing 10% fetal bovine serum and 50 μg/mL of ascorbic acid and seeded in a 96-well culture plate at a concentration of 5,000 cells in each well. When the cells became confluent, PTHrP was added and, one day later, 1 μCi of […] was added per well, followed by 17-h cultivation. The amount of cartilage matrix produced in the supernatant of the culture solution was measured by the method of Kato et al. (Kato, Y. et al., Endocrinology 122, 1991-1997, 1988). Briefly, the quantity of […] incorporated into proteoglycans was measured.

chondrocytes [2] = assay: Growth of chondrocytes cultured in a centrifugal tube (DNA content); type: cell-based, rabbit; conditions: 10^−7 M added on 8th day, up to 28 days; 10^−10 to 10^−7 M, 21st day; FIG. 3, 4
Excerpt: In the following Examples, grown chondrocytes were separated from the subchondral bone to bone transition area of rabbits 4 weeks old from birth by the method of Shimomura et al. (Shimomura, Y. et al., Calcif. Tissue Res. 19, 179-187, 1975). The separated chondrocytes were cultivated by the method of Iwamoto et al. (Iwamoto, M. et al. Dev. Biol. 136 500-507, 1989) and the method of Kato et al. (Kato, Y. et al. Endocrinology, 127, 114-118, 1990). Stated specifically, the separated chondrocytes were suspended in an Eagle's minimum essential medium (MEM) to give a concentration of 8×10^4 cells/mL in the presence of 10% fetal bovine serum (FBS) and 50 μg/mL of ascorbic acid and then seeded in 1-mL portions into 15-mL plastic centrifugal tubes (Corning). After 5-min centrifugation (at 1,500 rpm), the cells were cultivated in a CO2 gas incubator having a temperature setting of 37° C. Starting on the 6th day of the cultivation, medium changes were made every other day. […]
As in Example 1, chondrocytes were cultured in a centrifugal tube. […] After the cultivation, the cells were solubilized at appropriate intervals and the time-dependent changes in DNA content were measured. In another experiment, PTHrP was added at varying concentrations from 10^−10 to 10^−7 M and the DNA content on the 21st day of the cultivation was measured.

PTHrP receptors = molecular target: T1, PTHrP receptors (Oryctolagus cuniculus, UniProt G1T397); assay: Binding of 125I labelled PTHrP to receptors in chondrocyte homogenate (DSS crosslinking, SDS gel electrophoresis, autoradiography); set-up: species or system rabbit; conditions: addition of excess PTHrP; chondrocytes cultured 14 days, homogenized; FIG. 1
T1 construct: the chondrocytes cultured for 14 days were homogenized and incubated with ^125I labelled PTHrP for 5 h; endogenous in cells; host or cells: primary rabbit growth-plate chondrocytes, 14-day pellet culture, homogenized
T1 sequence (G1T397 29-589): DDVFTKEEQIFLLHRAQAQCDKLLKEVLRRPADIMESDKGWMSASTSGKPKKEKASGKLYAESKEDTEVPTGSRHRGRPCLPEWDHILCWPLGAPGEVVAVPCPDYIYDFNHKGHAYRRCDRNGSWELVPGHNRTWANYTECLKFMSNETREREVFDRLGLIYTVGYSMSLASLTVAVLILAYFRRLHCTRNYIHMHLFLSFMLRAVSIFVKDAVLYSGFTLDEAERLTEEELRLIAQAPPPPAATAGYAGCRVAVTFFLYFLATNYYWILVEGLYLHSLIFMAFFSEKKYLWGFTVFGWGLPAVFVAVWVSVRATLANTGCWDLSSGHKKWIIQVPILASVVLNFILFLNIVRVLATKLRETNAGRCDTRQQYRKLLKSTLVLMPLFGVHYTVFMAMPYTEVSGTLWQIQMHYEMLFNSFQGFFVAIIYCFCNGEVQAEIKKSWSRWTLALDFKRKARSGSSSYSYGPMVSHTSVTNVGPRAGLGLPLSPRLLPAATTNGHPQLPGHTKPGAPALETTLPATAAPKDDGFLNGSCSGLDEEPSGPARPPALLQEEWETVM
Excerpt: as §2, with “After the electrophoresis, autoradiography was performed in the usual manner. As a control, excess PTHrP, was added to prevent the binding of ^125I labelled PTHrP to the receptors and the unbound PTHrP was electrophoresed by the same procedure and subjected to autoradiography.” left out

chondrocytes [3] = assay: Alkaline phosphatase (ALP) activity of chondrocytes cultured in a centrifugal tube; type: cell-based, rabbit
Excerpt: as §2
As in Example 1, chondrocytes were cultured in a centrifugal tube. On the 8th day of the cultivation, 10^−7 M of PTHrP was added and the cultivation was continued for a period of up to 28 days. On the 21st day of the cultivation, a PTHrP free group was set and compared with the PTHrP treated group. In another experiment, PTHrP was added in varying amounts from […] and the dose-response relationship with the alkaline phosphatase activity (ALP activity) was verified. For the measurement of ALP activity, chondrocyte clusters were homogenized in 0.2% Triton X-100, centrifuged at 12,000 xg for 15 min and the supernatant was assayed by the method of Bessey et al. (Bessey O. A. et al., J. Biol. Chem. 164, 321-329, 1946). To investigate the progress of calcification, 0.5 μCi of ^45Ca was added at suitable intervals and its incorporation into the chondrocytes after 24 h, as well as the Ca level on the 28th day of the cultivation were measured.

mRNA of type X collagen = assay: Expression of mRNA of type X collagen in cultured chondrocytes (hybridization with 32P cDNA probe); type: cell-based, rabbit; conditions: 10^−8 and 10^−7 M PTHrP, last 6 days of 30-day cultivation; FIG. 9
Experimental: as §1

## PTHrP: human 1-34PTHrP purchased from the Peptide Institute, Inc.; partial peptide of PTHrP, 34 amino acids from the N terminus
mRNA of type II collagen
  expression of the mRNA of type II collagen: no effects
Chondrocytes [1]; 10^−7 M PTHrP, PTHrP Treated Group, FIG. 7
  incorporation of 45Ca into the chondrocytes: suppressed
Chondrocytes [1]; PTHrP Free Group, FIG. 7
  effect on 45Ca incorporation when PTHrP was removed: soon disappeared
Chondrocytes [1]; concentrations higher than 10^−8 M PTHrP, FIG. 8
  calcification of chondrocytes: completely suppressed
Grown chondrocytes; 10^−6 M PTHrP
  matrix synthesizing capability relative to control (incorporation of 35S-sulfuric acid into proteoglycans): about 3 times
Grown chondrocytes; 10^−10 to 10^−6 M PTHrP, dose response
  incorporation of 35S-sulfuric acid into proteoglycans: accelerated the incorporation of ^35S-sulfuric acid into proteoglycans in a dose-dependent manner
Chondrocytes [2]
  DNA content of the chondrocytes: not influenced at all
PTHrP receptors
  binding of 125I labelled PTHrP to the receptors: completely prevented
Chondrocytes [3]; 10^−7 M PTHrP added on 8th day, up to 28 days, PTHrP Treated Group, FIG. 5
  ALP activity of the chondrocytes: suppressed
Chondrocytes [3]; 10^−8 M PTHrP, FIG. 6
  ALP activity: suppressed almost completely
Chondrocytes [3]; PTHrP removed on 21st day of cultivation, PTHrP Free Group, FIG. 5
  ALP activity after PTHrP was eliminated from the culture solution: restored to the level of the control group
Chondrocytes [3]; dose response, 21st day, FIG. 6
  concentration at which PTHrP started to suppress the ALP activity: above 10^−9 M
mRNA of type X collagen
  expression of the mRNA of type X collagen: significantly inhibited
